Laboratory results reported in US7632859B2, “Iontophoretic delivery of rotigotine for the treatment of Parkinson's disease” (Schwarz Pharma AG, priority 2002, dated 2009).
Blank lines part the entries; values can stand above or below the compound they belong to.

How the values were obtained:
[1] = relative to therapeutic concentration range of 1.4 to 10.7 ng/ml; cited from earlier work
[2] = Solubility of rotigotine in the donor phase; assay type: physicochemical
Text: To provide for an optimal flux across human stratum corneum it was also necessary to provide for a sufficient concentration of Cl^− ions for the electrode reaction in the donor phase.

[3] = In vitro iontophoretic flux of rotigotine, three-chamber flow-through diffusion cells; assay type: in vitro ADME, human; conditions: donor pH 5, 500 μA/cm^2, 20° C.
Experimental: In vitro iontophoretic studies for the administration of rotigotine were carried out with three-chamber flow-through diffusion cells as described by […] al. ([…]. Boddé, “Validation and testing of a new iontophoretic continuous flow through transport cell”, J. Control. Release (1998), 51, […]). On both sides of the acceptor compartment human stratum corneum (SC) was situated. A dialysis membrane having a 5.000 Da cut-off was used as supporting membrane. The volume of the outer chambers was approximately 2 ml, while the volume of the acceptor compartment was 0.54 ml. The two outer chambers contained the silver plate (anode) or silver/silver chloride (cathode) driver […]. The donor phase consisted of rotigotine solution buffered with 5 mM citrate buffer (2.1 mM sodium citrate dihydrate and 2.9 mM citric acid). Using this set-up, a pH in the donor chamber of 5, a current density of 500 μA/cm^2, a pH in the acceptor chamber of 7.4, a temperature of 20° C. and an NaCl concentration in the donor chamber of 70 mmol/l, the flux of rotigotine was measured for different drug concentrations in the donor phase. Using a similar procedure as in Example 1 and a concentration of rotigotine of 1.4 mg/ml (3.98 mM), a pH in the donor chamber of 5, a current density of 500 μA/cm^2, a pH in the acceptor chamber of 7.4 and a temperature of 20° C., but substituting triethylammonium chloride (TEACl) or tributylammonium chloride (TBACl) for NaCl, the influence of the different cations on the flux was evaluated. The concentration of the chloride salts in the donor solution was 70 mmol/l. Using a similar procedure and the same parameters as in Example 2, the influence of reducing the pH in the acceptor chamber from 7.4 to 6.2 was evaluated for different chloride salts. The concentration of the chloride salts in the donor solution was 70 mmol/l.

[4] = relative to therapeutic range; cited from earlier work

SMILES: CN1CCc2cccc3c2[C@H]1Cc1ccc(O)c(O)c1-3 [R-apomorphine, (R)-5,6,6a,7-tetrahydro-6-methyl-4H-dibenzoquinoline-11,12-diol]
concentrations obtained by iontophoretic administration [1]: lower end of the therapeutic concentration range

solubility of rotigotine ([2]; effect of addition of chloride salts): reduces the solubility
solubility of rotigotine ([2]; effect of increasing pH): decreases when the pH is increased
Flux Rotigotine ([3]; co-ions source NaCl 70 mmol/l, rotigotine 1.4 mg/ml (3.98 mM), acceptor pH 7.4): 53.2 nmol/cm^2/h
Flux Rotigotine ([3]; co-ions source NaCl 70 mmol/l, rotigotine 1.4 mg/ml, acceptor pH 6.2): 58.9 nmol/cm^2/h
Flux Rotigotine ([3]; co-ions source TBACl 70 mmol/l, rotigotine 1.4 mg/ml (3.98 mM), acceptor pH 7.4): 62.0 nmol/cm^2/h
Flux Rotigotine ([3]; co-ions source TBACl 70 mmol/l, rotigotine 1.4 mg/ml, acceptor pH 6.2): 76.5 nmol/cm^2/h
Flux Rotigotine ([3]; co-ions source TEACl 70 mmol/l, rotigotine 1.4 mg/ml (3.98 mM), acceptor pH 7.4): 72.8 nmol/cm^2/h
Flux Rotigotine ([3]; co-ions source TEACl 70 mmol/l, rotigotine 1.4 mg/ml, acceptor pH 6.2): 43.2 nmol/cm^2/h
Flux Rotigotine ([3]; rotigotine donor conc. 0.5 mg/ml (1.4 mM), NaCl 70 mmol/l, acceptor pH 7.4): 22.9 nmol/cm^2/h
Flux Rotigotine ([3]; rotigotine donor conc. 1.0 mg/ml (2.8 mM), NaCl 70 mmol/l, acceptor pH 7.4): 30.2 nmol/cm^2/h
Flux Rotigotine ([3]; rotigotine donor conc. 1.4 mg/ml (3.98 mM), NaCl 70 mmol/l, acceptor pH 7.4): 53.2 nmol/cm^2/h
SMILES: CCCN(CCc1cccs1)[C@H]1CCc2c(O)cccc2C1 [Rotigotine, (−)-5,6,7,8-tetrahydro-6-[propyl-[2-(2-thienyl)ethyl]-amino]-1-naphthalenol]

SMILES: CCCN(CCC)CCc1cccc2c1CC(=O)N2 [ropinirole]
fluxes obtained by iontophoretic administration [4]: lower end of the therapeutic range
